Data from patent US12178846B2, “Methods of using gap junctions as therapeutic targets for the treatment of degenerative disorders of the retina” (The Research Foundation for The State University of New York, priority 2014, dated 2024).
Entries after “also recorded” stand apart in the source; their conditions may differ.

Key:
[1] = tested on: cells in the GCL of mouse retinas; assay: NMDA-induced excitotoxic cell death in the GCL of retina-eyecups; format: cell-based
Protocol: All animal procedures were in compliance with the NIH Guide for the Care and Use of Laboratory Animals and approved by the Institutional Animal Care and Use Committees at SUNY College of Optometry. Experiments were performed on retinas of wild type (WT), connexin knockout (KO) mice (Cx36^−/−, Cx45^−/−, and Cx36^−/−/45^−/− dKO), and their heterozygous (Het) littermates. The methods used to impale and label neurons have been described previously (Hu et al., J Neurosci 23:[…] (2003); Völgyi et al., Journal of Comparative Neurology 512:664-687 (2009)). Briefly, flattened retina-eyecups were placed in a superfusion chamber, which was mounted on the stage of a BX51WI light microscope (Olympus) within a light-tight Faraday cage. […] The retina-eyecups were superfused with a modified, oxygenated Ames medium maintained at 35° C.
Various methods were employed to produce cell death. (1) Single cell apoptosis: CytC was injected into individual RGCs or Müller cells for 15 minutes after which retinas were incubated for 4 hours in oxygenated Ames medium before fixation. After streptavidin histology, apoptotic cells were detected with an anti-active caspase 3 antibody or with Terminal deoxynucleotidyl transferase dUTP nick end labeling (TUNEL) staining. (2) Excitotoxicity: To assess the contribution of GJs to cell death within populations of RGCs and amacrine cells we conducted parallel experiments in which retinas were preincubated for 20 minutes in normal Ames medium or in one containing the GJ blockers meclofenamic acid (MFA; 50 μM) or 18-beta-glycyrrhetinic acid (18Beta-GA; 25 μM). Both control and drug-treated retinas were then exposed for 1 hour to NMDA (100-300 μM) to induce excitotoxicity followed by 4 hours in the control Ames solution. (3) Retinal ischemia: Transient in vivo retinal ischemia was induced by introducing into the anterior chamber a 33-gauge needle attached to a saline-filled reservoir (0.9% sodium chloride) that was raised above the animal so as to increase intraocular pressure (IOP) to a level […]. MFA (2 μl, 500 μM) was administered intravitreally either 30 minutes before or 3 and 24 hours following the ischemic insult. […]
Apoptotic and necrotic cell death were assessed by cell counts following: (1) staining with Live/Death Viability Assay (calcein AM/ethidium homodimer (EthD) (Invitrogen); (2) TUNEL, or, (3) labeling for activated caspase 3. For population studies, dead cells were counted manually within 500×500 μm areas (5 areas per retina) from micrographs of whole-mounts using images acquired by confocal microscope. Nuclear cell counts were made per unit length (500 μm) of frozen retinal cross-sections labeled with propidium iodide (2 μg/ml).

[2] = tested on: amacrine cells in the INL; assay: NMDA-induced excitotoxic loss of amacrine cell subpopulations in the INL; format: cell-based, mouse
Protocol: Various methods were employed to produce cell death. (1) Single cell apoptosis: CytC was injected into individual RGCs or Müller cells for 15 minutes after which retinas were incubated for 4 hours in oxygenated Ames medium before fixation. […] Both control and drug-treated retinas were then exposed for 1 hour to NMDA (100-300 μM) to induce excitotoxicity followed by 4 hours in the control Ames solution. (3) Retinal ischemia: Transient in vivo retinal ischemia was induced by introducing into the anterior chamber a 33-gauge needle attached to a saline-filled reservoir (0.9% sodium chloride) that was raised above the animal so as to increase intraocular pressure (IOP) to a level […]. MFA (2 μl, 500 μM) was administered intravitreally either 30 minutes before or 3 and 24 hours following the ischemic insult. The opposite eye was cannulated, but maintained at normal IOP to serve as a normotensive control. After 40-50 minutes, the needle was withdrawn and ischemia was evidenced by corneal whitening. After 7 days of reperfusion, mice were sacrificed and eyes were processed to assess retinal damage and neuronal death. […]
In some experiments, cells counts were limited to retrograde labeled RGCs in the GCL or certain subpopulation of amacrine cells, identified by specific markers, such as calretinin (CR), calbindin (CB) and choline acetyltransferase (ChAT) in the INL. Fluorescence intensity measures were made of glial fibrillary acidic protein (GFAP), which is overexpressed in Müller glial cells following retinal injury. Expression of GFAP and connexins were quantified by analysis of confocal images with Metavue software (Molecular Devices). Average pixel fluorescence intensities were measured by using uniform rectangular areas (3-5 per image) extending either from the GCL to the outer limiting membrane for GFAP or through the IPL for connexins. […]

NMDA receptors = settings: at the concentrations tested here; cited from earlier work
[3] = MFA 50 μM 30 min, NMDA 300 μM 1 h, p<0.01

Cc1ccc(Cl)c(Nc2ccccc2C(=O)O)c1Cl [MFA, meclofenamic acid]
cell viability, blocker alone [1]: did not affect cell viability
cell death in the GCL induced by excitotoxicity ([1]; retinas preincubated in 18Beta-GA 25 μM or MFA 50 μM, then NMDA 100-300 μM 1 h, vs NMDA alone, p<0.001): significantly reduced
number of CB-immunolabeled ACs in the INL [2, 3]: prevented the loss; also recorded: prevented such reduction
number of CR-immunolabeled ACs in the INL [2, 3]: prevented the loss; also recorded: prevented reduction
number of ChAT-positive ACs in the INL ([2]; MFA, NMDA-induced excitotoxicity, p>0.1): nor was this affected
inhibitory effect on NMDA receptors in neurons (NMDA receptors): no inhibitory effect
